Source: patent publication US20100278849A1, “PROSTATIC ACID PHOSPHATASE ANTIGENS” (priority 2004, published 2010)
Entries after “also recorded” stand apart in the source; their conditions may differ.

Tests used:
Assay type in all cases: cell-based
HLA-A2*0201 = HLA-A2*0201 (Homo sapiens, UniProt P04439, D140Y/D185E/D98H/E176V/E277Q/G131W/G231S/I119V/I121R/I166T/I218V/L300P/L318F/N151K/N90K/P208A/P217A/Q86G/Q94H/R138H/R169H/T345S); details: peptide at 100, 10 and 1 μM; compared with positive control influenza M1 peptide; three independent experiments
HLA-DRβ1*0401 = assay: Proliferation of splenocytes from immunised HLA-DR4 mice with peptide-pulsed BM-DC (tritiated thymidine); details: for effect of anti-HLA-DR antibody (L243) on proliferation: not blocked by isotype control; for proliferation of splenocytes from immunised HLA-DR4 mice: re-stimulated in vitro with peptide for 5 days; for number of HLA-DR4 mice whose splenocytes demonstrated specific proliferation: responding/total mice, after re-stimulation in vitro with relevant peptide
Protocol: (§1) HLA-A2.1/K^b mice were immunised with an emulsion consisting of 100 μg of the putative class-I peptide epitope and 100 μg of non-specific class-II peptide derived from hepatitis B virus in 50% incomplete Freund's adjuvant (IFA). HLA-DR4- and HLA-DR1-transgenic mice were immunised twice at one week interval with 100 μg of class-II peptide emulsified in 50% incomplete Freund's adjuvant (IFA) and 50% PBS. All vaccine were delivered as a 100 μl intradermal bolus inoculum at the base of the tail.
(§2) 0DC were generated using a method adapted from Inaba et al (Inaba et al. 1992). Briefly, femurs and tibias were harvested aseptically from non-immunised DR1 or DR4 transgenic mice and placed in sterile PBS supplemented with 50 IU/ml penicillin, 50 μg/ml streptomycin, and 0.25 μg/ml fungizone. The marrow was flushed out of the bone using BM-DC media (RPMI 1640 medium supplemented with 2 mM glutamine, 5% FCS, 10 mM Hepes, 501M 2-ME, 50 μg/ml penicillin, 50 μg/ml streptomycin, 0.25 μg/ml fungisone and 10% of supernatant collected from X-63 cells). The cells were washed once in BM-DC media and plated in 24-well plates at 10^6/well in 1 ml DC media and incubated at 37° C. in a 5% CO2 humidified atmosphere. On days 2 and 4, the non-adherent cells (T cells, B cells, granulocytes) were removed, and the remaining cells were cultured in fresh DC medium. After 7-9 days, clusters of loosely adherent DC were dislodged and collected by gently pipetting, before being washed and seeded in 24-well plates at 0.5×10^6 cells/well in 1 ml DC media. Peptides were added at 1 μg/well and the plates were incubated at 37° C. 1 μg/ml of LPS was added after 5 hours, and the plates were incubated overnight at 37° C. in a 5% CO2 in air-humidified atmosphere.
(§3) After 6 days, the spleens from immunised animals were collected and the cells flushed out using T cell media (RPMI+10% FCS+20 mM HEPES buffer+50 μM 2-mercaptoethanol+50 U/ml penicillin/streptomycin+0.25 μg/ml fungizone). The remaining splenic tissue was digested using an enzyme cocktail (0.1 U/ml DNAase (Sigma)+1.6 mg/ml collagenase (Sigma)) for 1 hour at 37° C. The cell suspension obtained was pooled with the flushed cells, washed once, and the splenocytes were plated in 24 well plates with 10 μg/ml of peptide at a density of 2.5×10^6/ml for FVB/N-DR1 or 3.5×10^6/ml for C57BL/6-DR4. Cells were also cultured with an irrelevant peptide as a control. To measure cytokine production, culture supernatants were collected on day 2 and 5 of the culture for the measurement of cytokine by ELISA.
[…] CD8+ T cells were depleted from the cell suspension using anti-CD8+ antibody coupled with magnetic beads (Dynal, UK) as per the manufacturers instructions. Cells were then washed in PBS and resuspended at 5×10^5/ml in T cell medium. 100 μl of T cells was then added to all wells. Anti-DR antibody (L243) or isotype control were added to some wells to confirm the MHC specificity of the T-cell response. LPS-treated dendritic cells were harvested, washed and incubated in 1 ml of DC medium with the addition of 10 íg of peptide at 37° C. for 5 hours. After washing, 10^3 peptide-pulsed DC were added to the relevant wells of lymphocyte cultures in 50 íl media. These plates were then incubated for 3 days at 37° C. in a 5% CO2 in air-humidified atmosphere. Tritriated thymidine was then added to the culture and incubated again for 18 hours. Plates were harvested onto 96 Uni/Filter (Packard), the scintillation liquid (Microscint 0, Packard) was added and the plates were counted on a Top-Count counter (Packard). Results are expressed in counts per minute (cpm) and as a means of the triplicate wells. Statistical analysis was performed using unpaired Student's t test. […]

HLA-DRβ1*0101 = assay: Proliferation of splenocytes from immunised HLA-DR1 mice with peptide-pulsed BM-DC (tritiated thymidine); details: for proliferative response of splenocytes from HLA-DR1 mice: FVB/N-DR1 / HLA-DRβ1*0101 transgenic mice; for number of HLA-DR1 mice whose splenocytes demonstrated specific proliferation: responding/total mice, after re-stimulation in vitro with relevant peptide
Protocol: as §1, §2, §3
Splenocytes from immunised animals cultured for 6 days in the presence of 10 μg of the test peptide were harvested, washed and counted. CD8+ T cells were depleted from the cell suspension using anti-CD8+ antibody coupled with magnetic beads (Dynal, UK) as per the manufacturers instructions. Cells were then washed in PBS and resuspended at 5×10^5/ml in T cell medium. 100 μl of T cells was then added to all wells. Anti-DR antibody (L243) or isotype control were added to some wells to confirm the MHC specificity of the T-cell response. LPS-treated dendritic cells were harvested, washed and incubated in 1 ml of DC medium with the addition of 10 íg of peptide at 37° C. for 5 hours. After washing, 10^3 peptide-pulsed DC were added to the relevant wells of lymphocyte cultures in 50 íl media. […] Plates were harvested onto 96 Uni/Filter (Packard), the scintillation liquid (Microscint 0, Packard) was added and the plates were counted on a Top-Count counter (Packard). […]

IFN-γ [1] = assay: Cytokine production by splenocytes of immunised C57BL/6-DR4 mice, ELISA; details: relevant versus irrelevant peptide
Protocol: as §3
(§4) Aliquots of supernatants were removed from CTL cultures on days 1 and 5 and on days 2 and 5 from CD4′ T cell cultures and stored at −20° C. until required. ELISA was used to quantitate concentrations of murine IFN-γ and IL-5 (R&D systems, UK).
We further investigated HLA-DR class-II restricted responses to PAP peptides that were predicted to bind to HLA-DR1 and HLA-DR4 according to the evidence-based computer assisted algorithm […]. The peptides displaying high binding scores for both HLA-DR alleles were selected and further studied (Table 1). C57BL/6-DR4 mice were immunised with these predicted HLA-DR-restricted PAP and the proliferative and IFN-γ response to peptide stimulation in vitro was monitored by proliferation assays and cytokine measurements. PAP. 64 and PAP.

IFN-γ [2] = assay: Cytokine production by splenocytes of immunised FVB/N-DR1 mice, ELISA
Protocol: as §3, §4

| Sequence | binding to HLA-A2 (T2 cells) (HLA-A2*0201) | effect of anti-HLA-DR antibody (L243) on proliferation (HLA-DRβ1*0401) | effect of anti-HLA-DR antibody (L243) on proliferation (HLA-DRβ1*0401; listed as PAP. 64) | proliferation of splenocytes from immunised HLA-DR4 mice (HLA-DRβ1*0401) | number of HLA-DR4 mice whose splenocytes demonstrated specific proliferation (HLA-DRβ1*0401) | number of HLA-DR4 mice whose splenocytes demonstrated specific proliferation (HLA-DRβ1*0401; listed as PAP. 64) | proliferative response of splenocytes from HLA-DR1 mice (HLA-DRβ1*0101) | number of HLA-DR1 mice whose splenocytes demonstrated specific proliferation (HLA-DRβ1*0101) | IFN-γ production by splenocytes (IFN-γ [1]) | IFN-γ or IL-50 (cytokine) production of splenocytes (IFN-γ [2]) | effect of anti-HLA-DR antibody (L243) on proliferation (HLA-DRβ1*0401; listed as PAP. 207) | number of HLA-DR4 mice whose splenocytes demonstrated specific proliferation (HLA-DRβ1*0401; listed as PAP. 207) |
| --- | --- | --- | --- | --- | --- | --- | --- | --- | --- | --- | --- | --- |
| ALASCFCFFC (listed as Homo sapiens) [PAP.15] | no significant binding |  |  |  |  |  |  |  |  |  |  |  |
| IMYSAHDTTV (listed as Homo sapiens) [PAP.284] | Weak binding |  |  |  |  |  |  |  |  |  |  |  |
| PQGFGQLTQLGMEQH (listed as Homo sapiens) [PAP.64] |  | inhibited by the addition of L243 antibody | blocked in the presence of L243 antibody | Specific proliferation | 2/5 | 2 out of 5 | failed, with the exception of one out six experiments | 1/6 | not produced specifically | failed, with the exception of one out six experiments |  |  |
| SKVYDPLYSESVHNF (listed as Homo sapiens) [PAP.207] |  | inhibited by the addition of L243 antibody |  | Specific proliferation | 1/6 |  | failed, with the exception of one out six experiments | 0/5 | not produced specifically | failed, with the exception of one out six experiments | blocked in the presence of L243 antibody | 1 out of 6 |
| VLAKELKFV (listed as Homo sapiens) [PAP.30, class-I PAP peptide already known in the art (Peshwa, 1998), reference compound] | strong binding; also recorded: moderate HLA-A2 binding |  |  |  |  |  |  |  |  |  |  |  |
